Source: patent US9879059B2, “Tailoring multivalent interactions of biopolymers with a polyproline scaffold” (Agency for Science, Technology and Research, priority 2013, dated 2018)

Key:
[1] = target: NGF (Homo sapiens, UniProt P01138); settings: for ka2 / kd1 / kd2 / ka1: two-state kinetic model, 25° C., NGF 11-185 nM; for ka1: standard errors in parentheses
Method: Affinity measurements were performed using a Biacore T100 system (GE Heathcare). The CM5 sensor chip was used for all measurements. At first, the instrument was primed with HBS-EP+ (GE Heathcare) buffer. Then, 700RU of streptavidin was immobilized on all flow cells. A 1:1 mixture of 0.4 M EDC and 0.1 M NHS was used to activate the flow cells, and 0.008 mg/mL streptavidin solution reconstituted in Acetate 5.0 buffer (GE Healthcare) was injected. Blocking of the remaining activated groups was done with a 1 M solution of ethanolamine (pH 8.5). Flow cell 1 (or 3) was used as a reference to subtract nonspecific binding, drift, and the bulk refractive index, while flow cell 2 (or 4) was further immobilized with glycol-peptide samples of varying structures. Biotinylated glycopeptides (20 nM) were dissolved in HBS-EP+ buffer and were injected to flow cell 2 (or 4) at 30 μL/min until the baseline response increased by 104 or 127 RU. The instrument was then primed using running buffer (HBS-EP+). NGF was dissolved in HBS-EP+ buffer to produce a 185 nM stock solution, which was serially diluted to produce a concentration series down to 11 nM. […] Flow cells were regenerated by 2.5 M MgCl2 at 30 μL/min for 30 seconds after injection of each protein solutions.
Surface plasmon resonance (SPR) technology was further employed to facilitate quantitative, real-time kinetic analysis of glycopeptide-NGF interaction. Streptavidin was coated on a carboxydextran CM5 sensor chip, using EDC/NHS coupling chemistry, at a relatively low density (≈700 RU) to prevent nonspecific interactions with NGF. Biotinylated glycopeptides were then immobilized on streptavidin-coated surface at normalized levels by molecular weights,^[12] […] Kinetics were monitored at 25° C. by injecting various concentrations of NGF (11-185 nM) over the surface for 240 s at 50 μL·min^−1 and recording the dissociation for 800 s before the surface was regenerated with 2.5 M solution of MgCl2. […] Further kinetic analysis was conducted using a two-state binding model for comprehensive understanding of this binding event.

[2] = system: PC12 cells; settings: for effect on NGF-mediated neurite outgrowth: NGF 4 ng/ml, glycopeptide 10 μM, 72 hr, compared to NGF-only control
Method: Rat pheochromocytoma (PC12) cells were maintained in T75 tissue culture flask in complete RPMI 1640 growth medium containing 10% heat-inactivated horse serum (HI-HS), 5% fetal bovine serum (FBS) and 1% penicillin/streptomycin. Stock cultures from liquid nitrogen were grown at 37° C. with 5% CO2 in a humidified chamber for 72 hr before experiments.
13 mm glass coverslips were submerged in 65% nitric acid for at least three days. The coverslips were washed with distilled water, 70% ethanol and 100% ethanol 3× each for 30 minutes with gentle rocking. The coverslips were dried in the cell culture hood overnight with UV sterilization. For coating, 60 μl of laminin solution (25 μg/ml in sterile PBS) was added to each coverslip, followed by 2 hr incubation at 37° C. The coverslips were rinsed 3× with PBS and dried in the hood before use.
PC12 cells were seeded on laminin-coated coverslips at a density of 100 cells/mm^2 in RPMI 1640 differentiation medium containing 1% HI-HS. Cells were allowed to attach to the surface for 1 hr at 37° C. The coverslips were transferred to 24-well plates and the cells were incubated with fresh differentiation medium for 1 hr. Glycopeptides were incubated with NGF in differentiation medium for 1 hr at room temperature before adding to the cells together. At the end of culture period, the cells were fixed with 4% formaldehyde solution for 15 minutes at room temperature and rinsed 2× with PBS. All experiments were repeated three times and done in duplicate each time. For each treatment, 400-500 randomly selected single cells were counted. The percentage of neurite-bearing cells was determined by counting the number of cells with neurite length at least one cell body long.

[3] = target: nerve growth factor (NGF) (Homo sapiens, UniProt P01138); experiment: ELISA of NGF binding to immobilized biotinylated glycopeptides
Chain of nerve growth factor (NGF) (P01138 122-241, species assumed): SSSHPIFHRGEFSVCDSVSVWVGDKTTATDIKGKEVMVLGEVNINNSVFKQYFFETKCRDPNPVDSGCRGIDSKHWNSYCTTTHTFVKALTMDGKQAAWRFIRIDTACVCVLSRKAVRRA
Method: The new plate was rinsed three times with PBS containing 0.05% Tween 20 and one time with PBS before the experiment. 100 μL of biotinylated glycopeptide solutions (0.5 μM) were added to required wells in the Pierce Streptavidin Coated High Binding Capacity plates (#15501), and incubated overnight at room temperature. After immobilization of glycopeptides, the plates were rinsed three times with PBS containing 0.05% Tween 20 and one time with PBS. The surface was then blocked with 125 μL of 3% BSA in PBS for 1 hr, followed by rinsing three times with PBS containing 0.05% Tween 20 and one time with PBS. 100 μL of varying concentrations (0 nM, 10 nM, 20 nM, 30 nM, 40 nM, 50 nM and 60 nM) of NGF in PBS containing 1% BSA was added to the wells and incubated for 2 hrs at 37° C. […]
The wells were then incubated with anti-NGF labeled with HRP in PBS containing 1% BSA. Absorbance signal was then developed with 100 μL of TMB Substrate from Thermo Scientific Pierce (#0034021) for 20 to 30 min before quenching with 100 μL of 2M H2SO4. Absorbance at 450 nm was then measured.
To evaluate the ability of the glycopeptides to interact with protein receptors, the binding affinity of each agent with nerve growth factor (NGF), which is known to bind CS-E sulfation motif selectively,^[9] was examined by ELISA. […] The amount of glycopeptide-bound NGF was measured by HRP-conjugated polyclonal NGF antibody.

[4] = system: TrkA; settings: 10 μM glycopeptide 1 hr, NGF 4 ng/ml 5 minutes, ratio phospho-TrkA to total TrkA
Method: PC12 cells were seeded on laminin-coated coverslips at a density of 300 cells/mm^2 and one coverslip was used for each treatment (˜40,000 cells in total). Cells were starved in differentiation medium for 12-18 hr before use. For glycopeptide treatment, cells were incubated with fresh differentiation medium containing 10 μM glycopeptide for 1 hr at 37° C. To induce TrkA phosphorylation, cells were treated with NGF at a final concentration of 4 ng/ml for 5 minutes at 37° C. Cells were washed with ice cold PBS and lysed using RIPA lysis buffer containing protease and phosphatase inhibitors. The protein samples were separated on 4-12% SDS-PAGE gel and transferred to nitrocellulose membrane. Membranes were blocked for 1 h at room temperature and probed with anti-TrkA Ab (1:1500) and anti-pTrkA Ab (1:1500) overnight at 4° C., followed by 2 hr incubation with horseradish peroxidase-conjugated secondary antibodies. Enhanced chemiluminescence system was used for detection. The bands were quantified using the ImageJ program and the ratio of phosphor-TrkA to total TrkA was calculated and expressed as arbitrary units (a.u.).

Chain of NGF (P01138 122-241, species assumed): as above

Structure (SMILES) | ka2 [1] | kd1 [1] | kd2 [1] | ka1 [1] | effect on NGF-mediated neurite outgrowth [2] | binding to NGF (ELISA) ([3]; glycopeptide immobilized on streptavidin plate, NGF 0-60 nM, result in words) | binds to NGF more strongly than agent 1 (comparison of KD values) ([1]; KD of 5 versus KD of 1) | SPR overall response to NGF ([1]; compared with glycopeptide 1, result in words) | increase of NGF-induced TrkA phosphorylation compared to control [4] [%] | percentage of neurite-bearing cells ([2]; 4 ng/ml NGF and 10 μM glycopeptide 3 days, 2 ng/ml NGF and 6 μM glycopeptide 5 days, result in words) | PC12 cell morphology with glycopeptide only ([2]; in the absence of NGF) | increase in NGF binding affinity in comparison to 1 (ELISA) ([3]; relative to glycopeptide 1) [fold]
COC(=O)[C@@H]1C[C@@H](n2cc(CO[C@@H]3O[C@H](COS(=O)(=O)O)[C@H](OS(=O)(=O)O)[C@H](O[C@@H]4O[C@H](C(=O)O)[C@@H](O)[C@H](O)[C@H]4O)[C@H]3NC(C)=O)nn2)CN1C(=O)[C@@H]1C[C@@H](n2cc(CO[C@@H]3O[C@H](COS(=O)(=O)O)[C@H](OS(=O)(=O)O)[C@H](O[C@@H]4O[C@H](C(=O)O)[C@@H](O)[C@H](O)[C@H]4O)[C@H]3NC(C)=O)nn2)CN1C(=O)[C@@H]1C[C@@H](n2cc(CO[C@@H]3O[C@H](COS(=O)(=O)O)[C@H](OS(=O)(=O)O)[C@H](O[C@@H]4O[C@H](C(=O)O)[C@@H](O)[C@H](O)[C@H]4O)[C@H]3NC(C)=O)nn2)CN1C(=O)[C@@H]1C[C@@H](n2cc(CO[C@@H]3O[C@H](COS(=O)(=O)O)[C@H](OS(=O)(=O)O)[C@H](O[C@@H]4O[C@H](C(=O)O)[C@@H](O)[C@H](O)[C@H]4O)[C@H]3NC(C)=O)nn2)CN1C(=O)[C@@H]1C[C@@H](n2cc(CO[C@@H]3O[C@H](COS(=O)(=O)O)[C@H](OS(=O)(=O)O)[C@H](O[C@@H]4O[C@H](C(=O)O)[C@@H](O)[C@H](O)[C@H]4O)[C@H]3NC(C)=O)nn2)CN1C(=O)[C@@H]1C[C@@H](n2cc(CO[C@@H]3O[C@H](COS(=O)(=O)O)[C@H](OS(=O)(=O)O)[C@H](O[C@@H]4O[C@H](C(=O)O)[C@@H](O)[C@H](O)[C@H]4O)[C@H]3NC(C)=O)nn2)CN1C(=O)[C@@H]1C[C@@H](n2cc(CO[C@@H]3O[C@H](COS(=O)(=O)O)[C@H](OS(=O)(=O)O)[C@H](O[C@@H]4O[C@H](C(=O)O)[C@@H](O)[C@H](O)[C@H]4O)[C@H]3NC(C)=O)nn2)CN1C(=O)[C@@H]1C[C@@H](n2cc(CO[C@@H]3O[C@H](COS(=O)(=O)O)[C@H](OS(=O)(=O)O)[C@H](O[C@@H]4O[C@H](C(=O)O)[C@@H](O)[C@H](O)[C@H]4O)[C@H]3NC(C)=O)nn2)CN1C(=O)[C@@H]1C[C@@H](n2cc(CO[C@@H]3O[C@H](COS(=O)(=O)O)[C@H](OS(=O)(=O)O)[C@H](O[C@@H]4O[C@H](C(=O)O)[C@@H](O)[C@H](O)[C@H]4O)[C@H]3NC(C)=O)nn2)CN1C(=O)[C@@H]1C[C@@H](n2cc(CO[C@@H]3O[C@H](COS(=O)(=O)O)[C@H](OS(=O)(=O)O)[C@H](O[C@@H]4O[C@H](C(=O)O)[C@@H](O)[C@H](O)[C@H]4O)[C@H]3NC(C)=O)nn2)CN1C(=O)[C@@H]1C[C@@H](n2cc(CO[C@@H]3O[C@H](COS(=O)(=O)O)[C@H](OS(=O)(=O)O)[C@H](O[C@@H]4O[C@H](C(=O)O)[C@@H](O)[C@H](O)[C@H]4O)[C@H]3NC(C)=O)nn2)CN1C(=O)[C@@H]1C[C@@H](n2cc(CO[C@@H]3O[C@H](COS(=O)(=O)O)[C@H](OS(=O)(=O)O)[C@H](O[C@@H]4O[C@H](C(=O)O)[C@@H](O)[C@H](O)[C@H]4O)[C@H]3NC(C)=O)nn2)CN1C(=O)CCOCCOCCOCCOCCOCCOCCOCCOCCOCCOCCOCCOCCNC(=O)CCCC[C@@H]1SC[C@@H]2NC(=O)N[C@@H]21 [Glycopeptide 1] | 3.62 (±0.04) × 10^−3 M^−1s^−1 | 3.22 (±0.07) × 10^−2 s^−1 | 6.43 (±0.13) × 10^−4 s^−1 | 1.95 (±0.39) × 10^3 M^−1s^−1 | no effect | moderate binding affinity |  |  |  |  |  | 
COC(=O)[C@@H]1C[C@@H](n2cc(CO[C@@H]3O[C@H](COS(=O)(=O)O)[C@H](OS(=O)(=O)O)[C@H](O[C@@H]4O[C@H](C(=O)O)[C@@H](O)[C@H](O)[C@H]4O)[C@H]3NC(C)=O)nn2)CN1C(=O)[C@@H]1CCCN1C(=O)[C@@H]1CCCN1C(=O)[C@@H]1C[C@@H](n2cc(CO[C@@H]3O[C@H](COS(=O)(=O)O)[C@H](OS(=O)(=O)O)[C@H](O[C@@H]4O[C@H](C(=O)O)[C@@H](O)[C@H](O)[C@H]4O)[C@H]3NC(C)=O)nn2)CN1C(=O)[C@@H]1CCCN1C(=O)[C@@H]1CCCN1C(=O)[C@@H]1C[C@@H](n2cc(CO[C@@H]3O[C@H](COS(=O)(=O)O)[C@H](OS(=O)(=O)O)[C@H](O[C@@H]4O[C@H](C(=O)O)[C@@H](O)[C@H](O)[C@H]4O)[C@H]3NC(C)=O)nn2)CN1C(=O)[C@@H]1CCCN1C(=O)[C@@H]1CCCN1C(=O)[C@@H]1C[C@@H](n2cc(CO[C@@H]3O[C@H](COS(=O)(=O)O)[C@H](OS(=O)(=O)O)[C@H](O[C@@H]4O[C@H](C(=O)O)[C@@H](O)[C@H](O)[C@H]4O)[C@H]3NC(C)=O)nn2)CN1C(=O)[C@@H]1CCCN1C(=O)[C@@H]1CCCN1C(=O)[C@@H]1C[C@@H](n2cc(CO[C@@H]3O[C@H](COS(=O)(=O)O)[C@H](OS(=O)(=O)O)[C@H](O[C@@H]4O[C@H](C(=O)O)[C@@H](O)[C@H](O)[C@H]4O)[C@H]3NC(C)=O)nn2)CN1C(=O)[C@@H]1CCCN1C(=O)[C@@H]1CCCN1C(=O)[C@@H]1C[C@@H](n2cc(CO[C@@H]3O[C@H](COS(=O)(=O)O)[C@H](OS(=O)(=O)O)[C@H](O[C@@H]4O[C@H](C(=O)O)[C@@H](O)[C@H](O)[C@H]4O)[C@H]3NC(C)=O)nn2)CN1C(=O)[C@@H]1CCCN1C(=O)[C@@H]1CCCN1C(=O)[C@@H]1C[C@@H](n2cc(CO[C@@H]3O[C@H](COS(=O)(=O)O)[C@H](OS(=O)(=O)O)[C@H](O[C@@H]4O[C@H](C(=O)O)[C@@H](O)[C@H](O)[C@H]4O)[C@H]3NC(C)=O)nn2)CN1C(=O)[C@@H]1CCCN1C(=O)[C@@H]1CCCN1C(=O)[C@@H]1C[C@@H](n2cc(CO[C@@H]3O[C@H](COS(=O)(=O)O)[C@H](OS(=O)(=O)O)[C@H](O[C@@H]4O[C@H](C(=O)O)[C@@H](O)[C@H](O)[C@H]4O)[C@H]3NC(C)=O)nn2)CN1C(=O)[C@@H]1CCCN1C(=O)[C@@H]1CCCN1C(=O)[C@@H]1C[C@@H](n2cc(CO[C@@H]3O[C@H](COS(=O)(=O)O)[C@H](OS(=O)(=O)O)[C@H](O[C@@H]4O[C@H](C(=O)O)[C@@H](O)[C@H](O)[C@H]4O)[C@H]3NC(C)=O)nn2)CN1C(=O)[C@@H]1CCCN1C(=O)[C@@H]1CCCN1C(=O)[C@@H]1C[C@@H](n2cc(CO[C@@H]3O[C@H](COS(=O)(=O)O)[C@H](OS(=O)(=O)O)[C@H](O[C@@H]4O[C@H](C(=O)O)[C@@H](O)[C@H](O)[C@H]4O)[C@H]3NC(C)=O)nn2)CN1C(=O)[C@@H]1CCCN1C(=O)[C@@H]1CCCN1C(=O)[C@@H]1C[C@@H](n2cc(CO[C@@H]3O[C@H](COS(=O)(=O)O)[C@H](OS(=O)(=O)O)[C@H](O[C@@H]4O[C@H](C(=O)O)[C@@H](O)[C@H](O)[C@H]4O)[C@H]3NC(C)=O)nn2)CN1C(=O)[C@@H]1CCCN1C(=O)[C@@H]1CCCN1C(=O)[C@@H]1C[C@@H](n2cc(CO[C@@H]3O[C@H](COS(=O)(=O)O)[C@H](OS(=O)(=O)O)[C@H](O[C@@H]4O[C@H](C(=O)O)[C@@H](O)[C@H](O)[C@H]4O)[C@H]3NC(C)=O)nn2)CN1C(=O)[C@@H]1CCCN1C(=O)[C@@H]1CCCN1C(=O)CCOCCOCCOCCOCCOCCOCCOCCOCCOCCOCCOCCOCCNC(=O)CCCC[C@@H]1SC[C@@H]2NC(=O)N[C@@H]21 [Glycopeptide 5] | 1.97 (±0.02) × 10^−3 M^−1s^−1 | 2.74 (±0.04) × 10^−2 s^−1 | 6.00 (±0.17) × 10^−4 s^−1 | 4.65 (±0.16) × 10^4 M^−1s^−1 | significantly promoted neurite outgrowth |  | approximately 18 fold | higher overall responses | ~40 | greatly increased | remained round-shaped and undifferentiated | 4.6
